Entries after “also recorded” stand apart in the source; their conditions may differ. Some results are limits rather than exact numbers.

For one assay, the target named is T1, SYK (Homo sapiens, UniProt P43405).
T1 construct: purchased Reaction Biology Corp., Malvern, Pa; (contract assay service)
Nature of the assay: SYK inhibition IC50 (Reaction Biology Corp.). The assay is classed as biochemical. As to conditions: 10-point curve; read-out: SYK IC50. The source says:
(§1) The inhibitory activity of a compound of the invention against PI3K and/or BRD4 and/or SYK and/or CDK4/6 can be readily determined using methods known to the skilled artisan, or by commercial vendors offering such services. […] In vivo, PI3K inhibition can be determined from target tissue biopsies by standard tissue processing to disrupt cells and then performing Western Blot analysis to determine the presence or absence of pAKT (substrate of PI3K) relative to a control sample. The activity of a compound of the invention as an inhibitor of a bromodomain-containing protein, such as a BET protein, such as BRD2, BRD3, BRD4, and/or BRDT, or an isoform or mutant thereof, may be determined in vitro, in vivo, or in a cell line. In vitro assays include assays that determine inhibition of bromodomain-containing proteins. Alternatively, inhibitor binding may be determined by running a competition experiment where a provided compound is incubated with a bromodomain-containing protein, such as a BET protein bound to known ligands, labeled or unlabeled. For example, bromodomain inhibition can be determined in vitro using Alpha Screen Technology (http://www.reactionbiologv.com/webapps/site/NewsPDFs/Bromodomain%20Assay %20Platform %20for %20Drug %20Screening %20and %20Discovery.pdf). In vivo bromodomain inhibition can be determined indirectly by evaluating the amount of protein present of proteins whose genes' transcription is influenced or controlled by the bromodomain protein, for example, the MYCN protein transcription is controlled by BRD4 (J. E. Delmore et al., Cell 2011, 146, 904-917; A. Puissant, Cancer Discov. 2013, 3, 308-323). Bromodomain inhibition may also be predicted by in silico modeling as described below in the Examples. Additionally, the company Promega offers a SYK luminescent assay to determine a compound's ability to inhibit the SYK protein (https://www.promega.com/-/media/files/resources/protocols/kinase-enzyme-appnotes/syk-kinase-assay-protocol.pdf?la=en).
Compounds of the invention were characterized for their ability to inhibit target proteins using third party vendors offering such services. PI3K alpha, gamma, and delta inhibition activity was determined by Thermo Fisher Scientific-Biosciences Life Sciences Solutions, Madison, Wis. The bromodomain protein inhibition (binding domain 1 and 2 of BRD4) as well as SYK inhibition was determined at Reaction Biology Corp., Malvern, Pa. Additional information on each of the assays performed and services provided is available at each company's website on the internet (https://www.thermofisher.com/us/en/home/life-science.html and http://www.reactionbiology.com/webapps/site, respectively). The IC50 data (shown below in Table 5) was calculated from a 10-point curve and is expressed in nanomolar concentration (nM) rounded off to the nearest whole number. Where multiple values were obtained the range from lowest to highest values is presented. NI=no inhibition detected up to 50 uM or IC50 not reached at 50 uM.

For the next assay, the target named is T2, PI3K α (Homo sapiens, UniProt P42336).
T2 construct: purchased Thermo Fisher Scientific-Biosciences Life Sciences Solutions, Madison, Wis; (contract assay service)
Nature of the assay: PI3K alpha inhibition IC50 (Thermo Fisher). The assay is classed as biochemical. Particulars: 10-point curve.
Description: as §1
Compounds of the invention were characterized for their ability to inhibit target proteins using third party vendors offering such services. PI3K alpha, gamma, and delta inhibition activity was determined by Thermo Fisher Scientific-Biosciences Life Sciences Solutions, Madison, Wis. The bromodomain protein inhibition (binding domain 1 and 2 of BRD4) as well as SYK inhibition was determined at Reaction Biology Corp., Malvern, Pa. […] The IC50 data (shown below in Table 5) was calculated from a 10-point curve and is expressed in nanomolar concentration (nM) rounded off to the nearest whole number. […]

Assay [1] deals with Bone marrow derived macrophages (BMDMs), M2 gene expression. Nature of the assay: M2 marker mRNA in IL4 stimulated bone marrow derived macrophages (RT PCR). The assay is classed as cell-based, murine. The method, then: Bone marrow derived macrophages (MOs) (BMDMs) were exposed to IL4 or LPS for 24 hours to stimulate the M2 or M1 macrophage transition in presence of Compound 1 and the known SYK inhibitor Bay-61-3606 at 1 μM conc. M2 markers Mmr, Ym1, Fizz1 and Mgl mRNA and M1 markers I11, 116 and Tnfa mRNA was quantitated by RT PCR. Values are mean±SEM (n=3-4). Expression of gene of interest is normalized to GAPDH. […] The data provide direct evidence that Compound 1 can block the immunosuppressive macrophage M2 gene expression and activate the M1 gene expression and therefore activate antitumor innate immune cell differentiation in vitro.
Relative mRNA expression of IL4 or LPS polarized genes in murine bone marrow derived macrophages (BMDMs) treated with various concentrations of inhibitors in vitro. Conclusion: Compound 3 suppressed in vitro macrophage specific immunosuppressive M2 gene expression markers and augmented macrophage stimulatory immune response M1 genes respectively.

Assay [2] in a line: LLC tumor growth in immunocompetent WT mice. Particulars: CT26, LLC and MC38 in immunocompetent mice. The assay is classed as in vivo. The source says: (§2) We investigated the effect of Compound 3 on immune cell in vitro and on tumor growth in in vivo in immunocompetent syngeneic tumor models and the effects on the macrophage and T cell immune compartment in vivo by this compound. […] In order to distinguish whether Compound 3 blocks tumor growth due to its effect on immune cell compartment and not on tumor compartment, we tested the effect of this chemotype on CT26 tumor growth in immunodeficient NSG mice vs immunocompetent Balb/c mice. […] Compound 3 has combinatorial immune-oncologic activity in vivo to stimulate anti-cancer innate and adaptive immunity in well-defined accepted immune competent murine models for cancer immunotherapy.
Compound 3: a novel dual Syk/PI3K inhibitory chemotype: Combinatorial inhibition of Syk and PI3K increases anti-tumor innate and adaptive T cell immune response in vivo. Tumor volume of LLC inoculated subcutaneously in WT mice treated with 10 mg/Kg Compound 3 (n=9, ***p<0.0001, t test). Conclusion: Compound 3 suppressed tumor growth of LLC by 68% in this immunocompetent immune-oncology model system as compared to vehicle control treated mice.
In contrast to above data, Compound 3 has a marked significant inhibitory effect on CT26, LLC and MC38 tumor growth in immunocompetent murine models. Conclusion: this establishes effect of Compound 3 as immune-oncologically active agent in cancer immunotherapy. […]

Assay [3] relates to LLC tumors, Ifng and Gzmb mRNA. Nature of the assay: mRNA expression of Ifng and Gzmb in LLC tumors. The assay is classed as in vivo, mice. Particulars: normalized to GAPDH. On the procedure: Effect of Compound 3 treatment in vivo at 10 mg/kg dose on mRNA expression of interferon (Ifng) gamma and granzyme b (Gzmb) in LLC tumors implanted in vehicle vs Compound 3 treated mice (n=3, biological replicates, p<0.05, t test). Relative gene expression is normalized to a house keeping gene, GAPDH for comparison.

A further assay relates to CT26 tumors. Nature of the assay: CT26 tumor growth in immunodeficient NSG mice. As to conditions: 3 mg/kg. The assay is classed as in vivo.
Description: as §2
Conclusion: this establishes effect of Compound 3 as immune-oncologically active agent in cancer immunotherapy. In immunocompetent mice with same tumor cell ino kculum Compound 3 inhibited CT26 tumor growth by 58% decrease in tumor volume. (n=x, p<0.001, t test).

The mark [4] stands for this setting: Table 7, 200 nM, IL4 polarized murine BMDMs, control = 1.

T2 sequence (P42336 whole entry): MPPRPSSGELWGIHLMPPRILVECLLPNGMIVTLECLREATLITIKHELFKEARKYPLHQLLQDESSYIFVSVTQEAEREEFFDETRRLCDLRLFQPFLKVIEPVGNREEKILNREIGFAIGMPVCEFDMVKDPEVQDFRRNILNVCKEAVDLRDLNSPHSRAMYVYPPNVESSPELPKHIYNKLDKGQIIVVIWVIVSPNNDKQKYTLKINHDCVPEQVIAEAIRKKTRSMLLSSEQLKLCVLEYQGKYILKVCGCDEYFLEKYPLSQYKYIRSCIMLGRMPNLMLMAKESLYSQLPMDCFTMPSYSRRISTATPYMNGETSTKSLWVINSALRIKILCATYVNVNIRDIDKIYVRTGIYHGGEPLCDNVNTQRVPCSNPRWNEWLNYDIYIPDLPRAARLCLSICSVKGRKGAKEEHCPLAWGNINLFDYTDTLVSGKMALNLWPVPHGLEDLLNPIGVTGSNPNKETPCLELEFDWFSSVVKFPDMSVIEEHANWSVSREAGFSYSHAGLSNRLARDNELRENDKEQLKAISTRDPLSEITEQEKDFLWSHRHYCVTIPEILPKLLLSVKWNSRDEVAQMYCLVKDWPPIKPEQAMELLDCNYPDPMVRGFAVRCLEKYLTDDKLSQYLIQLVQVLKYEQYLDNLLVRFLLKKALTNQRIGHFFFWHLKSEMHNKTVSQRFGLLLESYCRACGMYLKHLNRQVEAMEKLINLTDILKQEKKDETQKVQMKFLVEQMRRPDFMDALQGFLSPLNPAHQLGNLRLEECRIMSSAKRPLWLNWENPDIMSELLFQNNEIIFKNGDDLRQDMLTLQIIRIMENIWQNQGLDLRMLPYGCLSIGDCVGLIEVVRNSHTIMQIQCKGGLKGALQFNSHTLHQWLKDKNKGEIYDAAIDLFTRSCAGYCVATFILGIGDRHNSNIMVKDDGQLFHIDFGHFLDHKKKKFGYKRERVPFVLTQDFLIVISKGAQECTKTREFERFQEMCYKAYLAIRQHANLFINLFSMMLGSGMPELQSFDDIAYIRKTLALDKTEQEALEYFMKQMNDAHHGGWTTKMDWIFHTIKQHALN
T2 sequence (P27986 whole entry partner): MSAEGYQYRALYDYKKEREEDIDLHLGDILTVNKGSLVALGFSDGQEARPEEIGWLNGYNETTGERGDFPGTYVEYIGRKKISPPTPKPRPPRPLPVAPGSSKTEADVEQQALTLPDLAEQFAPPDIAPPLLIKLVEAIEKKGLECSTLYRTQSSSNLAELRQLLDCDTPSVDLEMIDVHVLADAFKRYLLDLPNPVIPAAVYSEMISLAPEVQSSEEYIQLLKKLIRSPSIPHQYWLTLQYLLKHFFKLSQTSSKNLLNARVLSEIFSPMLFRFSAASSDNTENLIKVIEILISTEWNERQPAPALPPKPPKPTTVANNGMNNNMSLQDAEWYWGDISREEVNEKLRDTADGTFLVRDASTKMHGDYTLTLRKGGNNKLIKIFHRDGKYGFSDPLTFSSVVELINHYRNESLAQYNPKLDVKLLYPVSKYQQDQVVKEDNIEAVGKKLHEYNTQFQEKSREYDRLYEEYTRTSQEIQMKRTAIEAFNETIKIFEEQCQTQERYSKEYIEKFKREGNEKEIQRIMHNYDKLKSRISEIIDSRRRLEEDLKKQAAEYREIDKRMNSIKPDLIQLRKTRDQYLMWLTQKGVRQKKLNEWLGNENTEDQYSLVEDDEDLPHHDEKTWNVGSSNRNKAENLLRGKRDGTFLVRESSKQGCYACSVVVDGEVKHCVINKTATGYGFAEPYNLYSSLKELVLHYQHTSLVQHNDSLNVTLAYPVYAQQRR

Regarding `Cc1nn(-c2ccnc(Nc3ccc(-c4csc5c(=O)cc(N6CCOCC6)oc45)cc3)n2)cc1CN1CCC1` [Compound 3, 3-[p-(4-{4-[(1-Azetidinyl)methyl]-3-methyl-1H-pyrazol-1-yl}-2-pyrimidinylamino)phenyl]-5-morpholino-4-oxa-1-thia-7-indenone], on SYK, the IC50 was under 100 nM. On PI3K α, the IC50 was in the range of 100 to 1000 nM. In assay [1] (setting [4]), the “Arg relative mRNA expression (M2 gene)” value worked out at 0.107 ± 0.01, the “Il10 relative mRNA expression (M2 gene)” value was 0.058 ± 0.01, the “Mmr relative mRNA expression (M2 gene)” value stood at 0.143 ± 0.03 and the “Tgfb relative mRNA expression (M2 gene)” value came to 0.458 ± 0.01. For the same molecule, the “Vegf relative mRNA expression (M2 gene)” value in assay [1] (setting [4]) is 0.294 ± 0.04. In addition, the “macrophage immunosuppressive M2 gene expression markers” value in assay [1] (murine BMDMs, IL4 polarized, various concentrations) was “suppressed”. For the same molecule, the “tumor growth inhibition across models” value in assay [2] was 58-68%. Moreover, the “Ifng mRNA expression in LLC tumors” value in assay [3] (10 mg/kg in vivo, n=3, vehicle 0.8 ± 0.18) is 1.4 ± 0.27,. In assay [3] (10 mg/kg in vivo, n=3, vehicle 0.87 ± 0.27), the “Gzmb mRNA expression in LLC tumors” value is 1.87 ± 0.5. Besides, the “expression of Ifng and Gzmb in LLC tumors” value in assay [3] (10 mg/kg, vs vehicle) was “increased expression of the inflammatory cytokines, Ifng and GzmB; also recorded: increased the expression of immunostimulatory T cell immune effectors”. In the assay with CT26 tumors (CT26 tumors in immunodeficient NSG mice, negative = increase in tumor growth), the “% Growth inhibition” value is −33 ± 27%. Moreover, in the assay on CT26 tumors (immunodeficient NSG mice), the “CT26 tumor growth in NSG mice” value was “did not reduce CT26 tumor growth; also recorded: no significant effect”.

Usually IC50 stands for the concentration that gives 50% inhibition.

The record behind these values is US11472814B2, “Thienopyranones and furanopyranones as checkpoint inhibitors and modulators of anti-tumor immunity” (SignalRx Pharmaceuticals, Inc., priority 2017, dated 2022).
